From PubChem BioAssay (NCI)
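How tested: cells in 96-well plates exposed to compound for 48 hours at five concentrations. The concentration for full growth arrest is given as TGI.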

Key:
Test in all cases: NCI anticancer screen, dose series, 48 h
OVCAR-5 ovarian = tested on: OVCAR-5 ovarian
HOP-62 NSCLC = tested on: HOP-62 NSCLC
OVCAR-8 ovarian = tested on: OVCAR-8 ovarian
LXFL 529 NSCLC = tested on: LXFL 529 NSCLC
NCI-H23 lung = tested on: NCI-H23 lung
M14 melanoma = tested on: M14 melanoma
IGROV1 ovarian = tested on: IGROV1 ovarian
MOLT-4 leukemia = tested on: MOLT-4 leukemia
SK-MEL-2 melanoma = tested on: SK-MEL-2 melanoma
ACHN renal = tested on: ACHN renal
CCRF-CEM leukemia = tested on: CCRF-CEM leukemia
OVCAR-4 ovarian = tested on: OVCAR-4 ovarian
SR leukemia = tested on: SR leukemia
LOX IMVI melanoma = tested on: LOX IMVI melanoma
HT29 colon = tested on: HT29 colon
COLO 205 colon = tested on: COLO 205 colon
HCT-116 colon = tested on: HCT-116 colon
HCC-2998 colon = tested on: HCC-2998 colon
A498 renal = tested on: A498 renal
SNB-78 CNS = tested on: SNB-78 CNS
KM12 colon = tested on: KM12 colon
TK-10 renal = tested on: TK-10 renal
MALME-3M melanoma = tested on: MALME-3M melanoma
U251 CNS = tested on: U251 CNS
NCI-H522 lung = tested on: NCI-H522 lung
HOP-18 NSCLC = tested on: HOP-18 NSCLC
DMS 114 small cell lung = tested on: DMS 114 small cell lung
SF-295 CNS = tested on: SF-295 CNS
HOP-92 NSCLC = tested on: HOP-92 NSCLC
NCI-H226 lung = tested on: NCI-H226 lung
SW-620 colon = tested on: SW-620 colon
HCT-15 colon = tested on: HCT-15 colon
RPMI-8226 leukemia = tested on: RPMI-8226 leukemia
UACC-62 melanoma = tested on: UACC-62 melanoma
UACC-257 melanoma = tested on: UACC-257 melanoma
786-0 renal = tested on: 786-0 renal
UO-31 renal = tested on: UO-31 renal
OVCAR-3 ovarian = tested on: OVCAR-3 ovarian
SK-MEL-5 melanoma = tested on: SK-MEL-5 melanoma
SF-268 CNS = tested on: SF-268 CNS
SNB-19 CNS = tested on: SNB-19 CNS
DLD-1 colon = tested on: DLD-1 colon
SN12C renal = tested on: SN12C renal
NCI-H460 lung = tested on: NCI-H460 lung
KM20L2 colon = tested on: KM20L2 colon
K-562 leukemia = tested on: K-562 leukemia
SK-OV-3 ovarian = tested on: SK-OV-3 ovarian
M19-MEL melanoma = tested on: M19-MEL melanoma
SK-MEL-28 melanoma = tested on: SK-MEL-28 melanoma
XF 498 CNS = tested on: XF 498 CNS
SNB-75 CNS = tested on: SNB-75 CNS
DMS 273 small cell lung = tested on: DMS 273 small cell lung
RXF 393 renal = tested on: RXF 393 renal
CAKI-1 renal = tested on: CAKI-1 renal
A549 NSCLC = tested on: A549 NSCLC
EKVX NSCLC = tested on: EKVX NSCLC
HL-60(TB) leukemia = tested on: HL-60(TB) leukemia
SF-539 CNS = tested on: SF-539 CNS

Measured: TGI

COC[C@@H]1[C@H]2OC(C)(C)O[C@H]2C(=O)N1C(=O)c1ccc(OC)cc1
> 100 µM: all assays above

CCOC(=O)[C@H]1Nc2ccc(Cl)cc2[C@H]2CCC[C@@H]12
64.4 µM: RXF 393 renal
62.2 µM: UACC-257 melanoma
not listed: CCRF-CEM leukemia | A498 renal | HOP-92 NSCLC | SK-OV-3 ovarian | HL-60(TB) leukemia
> 100 µM: all other assays above

CSC1N=CNc2c1sc(=S)n2-c1ccccc1 (stereo unspecified)
84.7 µM: SNB-75 CNS
74.4 µM: HOP-62 NSCLC
not listed: CCRF-CEM leukemia | K-562 leukemia | HL-60(TB) leukemia
> 100 µM: all other assays above
